For data set [1] the following is noted: Crystal.
A short description of data set [2]: Solid-liquid equilibrium temperature. Conditions: Crystal, High pressure microscope.

Results on 4 compounds are retold here after the NIST ThermoML archive (doi:10.1021/acs.jced.5b00330).

± gives the expanded uncertainty stated by the source.

Turning to `CCCCCCCCCCCCCCCCO` [1-hexadecanol], the Normal melting temperature in data set [1] (DTA) came out at 49.7 ± 1.3 °C; in data set [1] (High pressure microscope), 49.1 ± 1.4 °C. The Solid-liquid equilibrium temperature amounted to 322.2 ± 0.4 K in data set [2] (100 kPa); 327.3 ± 0.5 K in data set [2] (20000 kPa); 332.4 ± 0.5 K in data set [2] (40000 kPa); 337.6 ± 0.5 K in data set [2] (60000 kPa); 342.7 ± 0.5 K in data set [2] (80000 kPa).
On to `CCCCCCCCCCCCCCCCCCO` [1-octadecanol], for which the figures for the Normal melting temperature in data set [1] (DTA) and in data set [1] (High Pressure microscope) were 58.2 ± 1.3 °C and 57.8 ± 1.4 °C, respectively. The Solid-liquid equilibrium temperature is 330.9 ± 0.4 K in data set [2] (100 kPa); 335.8 ± 0.5 K in data set [2] (20000 kPa); 340.9 ± 0.5 K in data set [2] (40000 kPa); 345.9 ± 0.5 K in data set [2] (60000 kPa); 350.6 ± 0.5 K in data set [2] (80000 kPa).
For `CCCCCCCCCCCCCCO` [1-tetradecanol], the Normal melting temperature in data set [1] (DTA) worked out at 37.8 ± 1.3 °C; in data set [1] (High pressure microscope), 37.5 ± 1.4 °C. Besides, the Solid-liquid equilibrium temperature in data set [2] (100 kPa) came to 310.6 ± 0.4 K; in data set [2] (20000 kPa) it was 314.2 ± 0.5 K; in data set [2] (40000 kPa), 319 ± 0.5 K; in data set [2] (60000 kPa), 323.8 ± 0.5 K; in data set [2] (80000 kPa), 327.8 ± 0.5 K.
For the compound `CCCCCCCCCCCCO` [dodecan-1-ol], the figures for the Normal melting temperature in data set [1] (DTA) and in data set [1] (High Pressure microscope) were 24.7 ± 1.3 °C and 23.8 ± 1.4 °C, respectively. Further, the Solid-liquid equilibrium temperature is given as 296.9 ± 0.4 K in data set [2] (100 kPa); 300.5 ± 0.5 K in data set [2] (20000 kPa); 304.6 ± 0.5 K in data set [2] (40000 kPa); 308.4 ± 0.5 K in data set [2] (60000 kPa); 311.7 ± 0.5 K in data set [2] (80000 kPa).
